Here are results for seven molecules from patent US5605921A, “Triazole derivatives and salts thereof, and antifungal agent containing the same” (Toyama Chemical Co., Ltd., priority 1991, dated 1997).

By MIC is commonly meant the smallest concentration in the dilution series that meets the test's criterion for growth inhibition.

The nature of data set [1]: Acute toxicity in mice, intravenous. Type of data set: in vivo. To be noted: intravenous at the tail, ICR strain male mice, group of 5; 50% solution in polyethylene glycol 300. As to the method:
Each of the compounds of Examples 10, 12, 19, 79, 142 and 146 was administered to a group of 5 ICR strain male mice (weight: 29-31 g) intravenously at the tails, and the acute toxicity of each compound was examined.
Each compound was administered in the form of a 50% solution in polyethylene glycol 300.

Data set [2] has as its system Candida albicans ON28. The data set is described as follows: Minimum inhibitory concentration (MIC) against Candida albicans ON28. To be noted: ON28, 72 h, TC broth medium, 10^4 spores/ml, 37° C., 3 days. Type of data set: cell-based. As to the method: (§1) MIC was determined in accordance with the method of M. S. Marriott [25th Interscience Conference on Antimicrobial Agents and Chemotherapy, p. 243 (1985)].
(§2) Candida albicans ON28 was cultured in a sabouraud dextrose agar medium containing 10 g of neopeptone, 20 g of glucose and 15 g of agar per liter, at 30° C. for 1-2 days. The yeast cells were suspended in sterile distilled water. Separately, Aspergillus fumigatus IFO8868 was cultured in a potato dextrose agar medium (manufactured by Nissui Pharmaceutical Co., Ltd.) at 30° C. until the conidia were formed abundantly. The formed conidia were suspended in a sterile physiological saline containing 0.1% of Tween 80. Each of the Candida albicans suspension and the Aspergillus fumigatus suspension was inoculated into a TC broth medium (containing 1.17 g of an yeast carbon base, 0.25 g of ammonium sulfate, 2.0 ml of a 50-fold concentrate of L-glutamic acid-containing MEM amino acid, 20 ml of a 0.5M phosphate buffer of pH 7.5 and 1.33 ml of 7.5% sodium hydrogencarbonate per 100 ml) containing a test compound, so that the final fungal amount became 10^4 spores/ml. Then, culture was conducted at 37° C. for 3 days. Thereafter, the growth of fungi was examined. The minimum concentration of test compound at which the growth of fungi had been inhibited, was taken as MIC (μg/ml).

Data set [3] deals with Aspergillus fumigatus IFO8868. The data set is described as follows: Minimum inhibitory concentration (MIC) against Aspergillus fumigatus IFO8868. Format: cell-based. To be noted: IFO8868, 72 h, TC broth medium, 10^4 spores/ml, 37° C., 3 days. The protocol: as §1, §2
The test system of data set [4] is Aspergillus fumigatus IFO8868. The data set can be described thus: Therapeutic effect, oral, mice infected with Aspergillus fumigatus IFO8868 (4), Table 2d. To be noted: average survival days of Ketoconazole taken as 100; Aspergillus fumigatus 5.8×10^6 cells/mouse i.v.; 0.8 mg/mouse oral, 2 hours after infection and once daily for six consecutive days; 10 days observation; 10 mice. Type of data set: in vivo. The protocol:
(4) The therapeutic effects of the present compounds, when they were administered orally, were examined using mice infected with Aspergillus fumigatus IFO8868.
Aspergillus fumigatus IFO8868 was injected in a proportion of 5.8×10^6 cells/mouse to a group of 10 ICR strain male mice (weight: 19-21 g) intravenously at the tails, whereby the mice were infected with the fungi. […] The relative therapeutic index of the test compound was determined from the average survival days.
The results are shown in Table 2d, in which the relative therapeutic index of each test compound is a value calculated by taking the average survival days of Ketoconazole as 100.

Data set [5] concerns Candida albicans ON28. The data set can be described thus: Therapeutic effect, oral, mice infected with Candida albicans ON28 (3), Table 2c. Format: in vivo, ICR strain male mice infected with Candida albicans ON28. To be noted: average survival days of Ketoconazole taken as 100; Candida albicans 5.7×10^6 cells/mouse i.v.; 0.1 mg/mouse oral, 2 hours after infection; 10 days observation; 10 mice. As to the method: (3) The therapeutic effects of the present compounds, when they were administered orally, were examined using mice infected with Candida albicans ON28.
Candida albicans ON28 was injected in a proportion of 5.7×10^6 cells/mouse to a group of 10 ICR strain male mice (weight: 19-21 g) intravenously at the tails, whereby the mice were infected with the fungi. […] The relative therapeutic index of the test compound was determined from the average survival days.
The results are shown in Table 2c, in which the relative therapeutic index of each test compound is a value calculated by taking the average survival days Ketoconazole as 100.

Data set [6] deals with Candida albicans ON28. The data set can be described thus: Therapeutic effect, oral, mice infected with Candida albicans ON28 (1), Table 2a. Type of data set: in vivo, ICR strain male mice infected with Candida albicans ON28. To be noted: average survival days of Ketoconazole taken as 100; Candida albicans 3.5×10^6 cells/mouse i.v.; 0.1 mg/mouse oral, 2 hours after infection; 10 days observation; 5 mice. The protocol: (1) The therapeutic effects of the present compounds, when they were administered orally, were examined using mice infected with Candida albicans ON28.
Candida albicans ON28 was injected in a proportion of 3.5×10^6 cells/mouse to a group of 5 ICR strain male mice (weight: 19-21 g) intravenously at the tails, whereby the mice were infected with the fungi. […] The relative therapeutic index of the test compound was determined from the average survival days.
The results are shown in Table 2a, in which the relative therapeutic index of each test compound is a value calculated by taking the average survival days Ketoconazole as 100.

In data set [7] the test system is Aspergillus fumigatus IFO8868. The data set is described as follows: Therapeutic effect, oral, mice infected with Aspergillus fumigatus IFO8868 (2), Table 2b. To be noted: average survival days of Ketoconazole taken as 100; Aspergillus fumigatus 3.6×10^6 cells/mouse i.v.; 0.8 mg/mouse oral, 2 hours after infection; 10 days observation; 5 mice. Format: in vivo. The protocol: (2) The therapeutic effects of the present compounds, when they were administered orally, were examined using mice infected with Aspergillus fumigatus IFO8868.
Aspergillus fumigatus IFO8868 was injected in a proportion of 3.6×10^6 cells/mouse to a group of 5 ICR strain male mice (weight: 19-21 g) intravenously at the tails, whereby the mice were infected with the fungi. […] The relative therapeutic index of the test compound was determined from the average survival days.
The results are shown in Table 2b, in which the relative therapeutic index of each test compound is a value calculated by taking the average survival days of Ketoconazole as 100.

≈ marks a conversion by molar mass, not a printed value.

As for `NC(=O)C(F)(F)C(O)(Cn1cncn1)c1ccc(F)cc1F` (single isomer, unassigned) [Example 142], the “dose up to which no dead case occurred (acute toxicity)” value (“dose up to which no dead case occurred” for short) in data set [1] is reported as no less than 200 mg/kg. The MIC against Candida albicans ON28 [2] is 0.78 µg/mL (≈ 2.45 µM); in data set [3] it was 100 µg/mL (≈ 314 µM). For the same molecule, the figures for the Relative therapeutic index (in data set [4]; in the data set on Candida albicans ON28 [5]) were 216 and 405, respectively.

For `NC(=O)C(F)(F)C(O)(Cn1cncn1)c1ccc(F)cc1Cl` (single isomer, unassigned) [Example 146], in data set [1], the “dose up to which no dead case occurred” value was no less than 200 mg/kg. The figures for the MIC (with Candida albicans ON28 [2]; in data set [3]) were 0.39 µg/mL (≈ 1.17 µM) and 50 µg/mL (≈ 149 µM), respectively. Also, the Relative therapeutic index came out at 500 in data set [4] and 418 with Candida albicans ON28 [5].

`NC(=O)C(F)(F)C(O)(Cn1cncn1)c1ccc(F)cc1F` (centres unmarked) [Example 10, 3-(2,4-difluorophenyl)-2,2-difluoro-3-hydroxy-4-(1H-1,2,4-triazol-1-yl)butanamide]: the “dose up to which no dead case occurred” value in data set [1] is reported as no less than 200 mg/kg. Moreover, the Relative therapeutic index in data set [4] turned out to be 200; with Candida albicans ON28 [5] it was 414.

As to `CCNC(=O)C(F)(F)C(O)(Cn1cncn1)c1ccc(F)cc1F` (centres unmarked) [Example 12], in data set [1], the “dose up to which no dead case occurred” value is no less than 100 mg/kg. Besides, the Relative therapeutic index with Candida albicans ON28 [6] is listed as 440; in data set [4], 237; in the data set on Candida albicans ON28 [5] it was 445; in data set [7], 150. The MIC in the data set on Candida albicans ON28 [2] amounted to 0.2 µg/mL (≈ 0.578 µM); in data set [3], 25 µg/mL (≈ 72.2 µM).

Consider `O=C(NC1CC1)C(F)(F)C(O)(Cn1cncn1)c1ccc(F)cc1F` (centres unmarked) [Example 19], for which the “dose up to which no dead case occurred” value in data set [1] was no less than 100 mg/kg. Further, the Relative therapeutic index came to 625 with Candida albicans ON28 [6], 253 in data set [4], 405 in the data set on Candida albicans ON28 [5] and 164 in data set [7]. Also, the minimum inhibitory concentration (MIC) with Candida albicans ON28 [2] was found to be 0.1 µg/mL (≈ 0.279 µM); in data set [3], 50 µg/mL (≈ 140 µM).

For the molecule `O=C(NC1CC1)C(F)(F)C(O)(Cn1cncn1)c1ccc(F)cc1Cl` (centres unmarked) [Example 30], the Relative therapeutic index in the data set on Candida albicans ON28 [6] is listed as 355; in data set [4], 358; in the data set on Candida albicans ON28 [5] it was 414; in data set [7], 207. In addition, the MIC against Candida albicans ON28 [2] was 0.2 µg/mL (≈ 0.534 µM); in data set [3] it was 12.5 µg/mL (≈ 33.4 µM).

As to `NC(=O)C(F)(F)C(O)(Cn1cncn1)c1ccc(F)cc1Cl` (centres unmarked) [Example 79], the “dose up to which no dead case occurred” value in data set [1] is no less than 200 mg/kg. Besides, the MIC with Candida albicans ON28 [2] amounted to 0.78 µg/mL (≈ 2.33 µM); in data set [3], 50 µg/mL (≈ 149 µM). Also, the Relative therapeutic index in data set [4] is 400; with Candida albicans ON28 [5] it was 405.
